Reference: patent US20050143927A1, “Method for estimating or predicting the anti-tumor activity of a compound and for estimating or predicting the tumor growth in mammals” (Pharmacia Italia S.p.A., priority 2002, published 2005)

Test: Two-compartment PK model fitted to plasma concentration of Drug-A (Experiment-A)
Conditions: for Vd: male, athymic nude, mouse, iv; for Vd / A (PK macro-constant) / Alpha (PK macro-constant) / B (PK macro-constant) / Beta (PK macro-constant): plasma
[1] = dose 20 mg/kg iv-bolus q4dx3, mean of four mice
[2] = dose 30 mg/kg iv-bolus q4dx3, mean of four mice
[3] = dose 40 mg/kg iv-bolus q4dx3, mean of four mice
[4] = mouse 0, 20 mg/kg iv-bolus q4dx3
[5] = mouse 26, 40 mg/kg iv-bolus q4dx3
[6] = mouse 28, 30 mg/kg iv-bolus q4dx3
[7] = mouse 31, 20 mg/kg iv-bolus q4dx3
[8] = mouse 55, 20 mg/kg iv-bolus q4dx3
[9] = mouse 59, 30 mg/kg iv-bolus q4dx3
[10] = mouse 64, 30 mg/kg iv-bolus q4dx3
[11] = mouse 69, 20 mg/kg iv-bolus q4dx3
[12] = mouse 78, 40 mg/kg iv-bolus q4dx3
[13] = mouse 80, 40 mg/kg iv-bolus q4dx3
[14] = mouse 81, 40 mg/kg iv-bolus q4dx3
[15] = mouse 88, 30 mg/kg iv-bolus q4dx3

CC(=O)O[C@H]1C(=O)[C@@]2(C)[C@H]([C@H](OC(=O)c3ccccc3)[C@]3(O)C[C@H](OC(=O)[C@H](O)[C@@H](NC(=O)c4ccccc4)c4ccccc4)C(C)=C1C3(C)C)[C@]1(OC(C)=O)CO[C@@H]1C[C@@H]2O [Drug-A, paclitaxel]
A (PK macro-constant), mean [1]: 34294.5621 | B (PK macro-constant), mean [1]: 3467.5180 | K10, mean [1]: 41.0979 day⁻¹ | K12, mean [1]: 16.4430 day⁻¹ | K21, mean [1]: 12.4026 day⁻¹ | α (PK macro-constant), mean [1]: 62.0545 | β (PK macro-constant), mean [1]: 7.8890 | A (PK macro-constant), mean [2]: 56632.6519 | B (PK macro-constant), mean [2]: 759.8587 | K10, mean [2]: 20.8063 day⁻¹ | K12, mean [2]: 2.2085 day⁻¹ | K21, mean [2]: 3.4809 day⁻¹ | α (PK macro-constant), mean [2]: 23.2801 | β (PK macro-constant), mean [2]: 3.2157 | A (PK macro-constant), mean [3]: 62064.8954 | B (PK macro-constant), mean [3]: 7999.4363 | K10, mean [3]: 20.0530 day⁻¹ | K12, mean [3]: 9.5544 day⁻¹ | K21, mean [3]: 6.2425 day⁻¹ | α (PK macro-constant), mean [3]: 32.9706 | β (PK macro-constant), mean [3]: 2.8793 | Vd (20 mg/kg, Vd (apparent volume of distribution of the central compartment), mouse 0, 20 mg/kg iv-bolus q4dx3): 9.51 L/kg | Vd (20 mg/kg, Vd (apparent volume of distribution of the central compartment), mouse 31, 20 mg/kg iv-bolus q4dx3): 1.34 L/kg | Vd (20 mg/kg, Vd (apparent volume of distribution of the central compartment), mouse 55, 20 mg/kg iv-bolus q4dx3): 0.719 L/kg | Vd (20 mg/kg, Vd (apparent volume of distribution of the central compartment), mouse 69, 20 mg/kg iv-bolus q4dx3): 0.188 L/kg | Vd (20 mg/kg, Vd, mean, dose 20 mg/kg iv-bolus q4dx3, mean of four mice): 2.94 L/kg | Vd (30 mg/kg, Vd (apparent volume of distribution of the central compartment), mouse 28, 30 mg/kg iv-bolus q4dx3): 0.528 L/kg | Vd (30 mg/kg, Vd (apparent volume of distribution of the central compartment), mouse 59, 30 mg/kg iv-bolus q4dx3): 0.373 L/kg | Vd (30 mg/kg, Vd (apparent volume of distribution of the central compartment), mouse 64, 30 mg/kg iv-bolus q4dx3): 0.745 L/kg | Vd (30 mg/kg, Vd (apparent volume of distribution of the central compartment), mouse 88, 30 mg/kg iv-bolus q4dx3): 0.578 L/kg | Vd (30 mg/kg, Vd, mean, dose 30 mg/kg iv-bolus q4dx3, mean of four mice): 0.556 L/kg | Vd (40 mg/kg, Vd (apparent volume of distribution of the central compartment), mouse 26, 40 mg/kg iv-bolus q4dx3): 5.07 L/kg | Vd (40 mg/kg, Vd (apparent volume of distribution of the central compartment), mouse 78, 40 mg/kg iv-bolus q4dx3): 1.87 L/kg | Vd (40 mg/kg, Vd (apparent volume of distribution of the central compartment), mouse 80, 40 mg/kg iv-bolus q4dx3): 0.234 L/kg | Vd (40 mg/kg, Vd (apparent volume of distribution of the central compartment), mouse 81, 40 mg/kg iv-bolus q4dx3): 0.502 L/kg | Vd (40 mg/kg, Vd, mean, dose 40 mg/kg iv-bolus q4dx3, mean of four mice): 1.92 L/kg | K10 (constant rate of the elimination process) [4]: 25.15 day⁻¹ | K12 (interchange constant rate) [4]: 15.64 day⁻¹ | K21 (interchange constant rate) [4]: 5.819 day⁻¹ | A (PK macro-constant) [4]: 1975 | Alpha (PK macro-constant) [4]: 43.22 | B (PK macro-constant) [4]: 128.5 | Beta (PK macro-constant) [4]: 3.386 | K10 (constant rate of the elimination process) [5]: 14.22 day⁻¹ | K12 (interchange constant rate) [5]: 1.663 day⁻¹ | K21 (interchange constant rate) [5]: 3.76 day⁻¹ | A (PK macro-constant) [5]: 7586 | Alpha (PK macro-constant) [5]: 16.38 | B (PK macro-constant) [5]: 297.8 | Beta (PK macro-constant) [5]: 3.265 | K10 (constant rate of the elimination process) [6]: 20.98 day⁻¹ | K12 (interchange constant rate) [6]: 1.774 day⁻¹ | K21 (interchange constant rate) [6]: 6.257 day⁻¹ | A (PK macro-constant) [6]: 54798.379413 | Alpha (PK macro-constant) [6]: 23.4 | B (PK macro-constant) [6]: 2069 | Beta (PK macro-constant) [6]: 5.61 | K10 (constant rate of the elimination process) [7]: 22.85 day⁻¹ | K12 (interchange constant rate) [7]: 3.375 day⁻¹ | K21 (interchange constant rate) [7]: 5.126 day⁻¹ | A (PK macro-constant) [7]: 14365.650820 | Alpha (PK macro-constant) [7]: 27.02 | B (PK macro-constant) [7]: 518.5 | Beta (PK macro-constant) [7]: 4.336 | K10 (constant rate of the elimination process) [8]: 35.24 day⁻¹ | K12 (interchange constant rate) [8]: 3.303 day⁻¹ | K21 (interchange constant rate) [8]: 3.947 day⁻¹ | A (PK macro-constant) [8]: 27526.035314 | Alpha (PK macro-constant) [8]: 38.91 | B (PK macro-constant) [8]: 293.5 | Beta (PK macro-constant) [8]: 3.575 | K10 (constant rate of the elimination process) [9]: 18.65 day⁻¹ | K12 (interchange constant rate) [9]: 4.915 day⁻¹ | K21 (interchange constant rate) [9]: 0.005329 day⁻¹ | A (PK macro-constant) [9]: 80469.811028 | Alpha (PK macro-constant) [9]: 23.57 | B (PK macro-constant) [9]: 3.797 | Beta (PK macro-constant) [9]: 0.004217 | K10 (constant rate of the elimination process) [10]: 17.25 day⁻¹ | K12 (interchange constant rate) [10]: 0.5748 day⁻¹ | K21 (interchange constant rate) [10]: 3.444 day⁻¹ | A (PK macro-constant) [10]: 39912.523664 | Alpha (PK macro-constant) [10]: 17.96 | B (PK macro-constant) [10]: 374.8 | Beta (PK macro-constant) [10]: 3.308 | K10 (constant rate of the elimination process) [11]: 81.15 day⁻¹ | K12 (interchange constant rate) [11]: 43.46 day⁻¹ | K21 (interchange constant rate) [11]: 34.72 day⁻¹ | A (PK macro-constant) [11]: 93311.275568 | Alpha (PK macro-constant) [11]: 139.1 | B (PK macro-constant) [11]: 12929.572382 | Beta (PK macro-constant) [11]: 20.26 | K10 (constant rate of the elimination process) [12]: 18.81 day⁻¹ | K12 (interchange constant rate) [12]: 1.318 day⁻¹ | K21 (interchange constant rate) [12]: 0.03721 day⁻¹ | A (PK macro-constant) [12]: 21408.348297 | Alpha (PK macro-constant) [12]: 20.13 | B (PK macro-constant) [12]: 2.6 | Beta (PK macro-constant) [12]: 0.03477 | K10 (constant rate of the elimination process) [13]: 30.07 day⁻¹ | K12 (interchange constant rate) [13]: 35.07 day⁻¹ | K21 (interchange constant rate) [13]: 21.07 day⁻¹ | A (PK macro-constant) [13]: 139526.742848 | Alpha (PK macro-constant) [13]: 78.1 | B (PK macro-constant) [13]: 31692.453321 | Beta (PK macro-constant) [13]: 8.112 | K10 (constant rate of the elimination process) [14]: 17.11 day⁻¹ | K12 (interchange constant rate) [14]: 0.1688 day⁻¹ | K21 (interchange constant rate) [14]: 0.1062 day⁻¹ | A (PK macro-constant) [14]: 79738.401451 | Alpha (PK macro-constant) [14]: 17.28 | B (PK macro-constant) [14]: 4.845 | Beta (PK macro-constant) [14]: 0.1051 | K10 (constant rate of the elimination process) [15]: 26.34 day⁻¹ | K12 (interchange constant rate) [15]: 1.57 day⁻¹ | K21 (interchange constant rate) [15]: 4.217 day⁻¹ | A (PK macro-constant) [15]: 51349.893679 | Alpha (PK macro-constant) [15]: 28.19 | B (PK macro-constant) [15]: 591.6 | Beta (PK macro-constant) [15]: 3.941
